Reference: patent US12606528B2, “Methods and materials for inhibiting NF-kB activity” (University of Pittsburgh - Of the Commonwealth System of …, priority 2019, dated 2026)
Read-outs that look alike come from different tables or passages of the source.

Columns and labels:
NF-κB = NF-κB assay: THP1-NF-κB-LUC cells, LPS-stimulated secreted luciferase; type: cell-based; details: THP1-NF-κB-LUC cells, read-out: IC50 (NF-κB assay)
How it was run: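 THP1-NF-κB-LUC cells (25k/well) were pretreated with compounds for 2 h, then stimulated with LPS (10 ng/mL) for 18 h. Secreted luciferase was measured and normalized to vehicle, and IC50 was fitted from the concentration series.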

TNF release = test: TNF assay: TNF release from LPS-stimulated human PBMCs (TNF ELISA); type: cell-based; details: PBMC, read-out: IC50 (TNF assay)
How it was run: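 Human PBMCs at 10k/well pretreated with compound dilutions 2 h, then stimulated with LPS (10 ng/mL) for 18 h. TNF in supernatants quantified by ELISA; IC50 for inhibition of TNF release fitted from concentration–response.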

[1] = LPS-stimulated human PBMCs, TNF ELISA
[2] = compounds 2 hours before LPS (10 ng/mL) for 18 hours, secreted luciferase
[3] = human PBMCs, compounds 2 hours before LPS (10 ng/ml) for 18 hours, supernatant TNF ELISA

IC50 (NF-κB; LPS-stimulated) [nM] | IC50 (TNF release; [1]) [µM] | IC50 (NF-κB; [2]) [nM] | IC50 (TNF release; [3]) [µM] | Compound
100 to 1000 | < 0.1 |  |  | CCC[S+]([O-])c1oc(-c2ccc(F)cc2)nc1S(=O)(=O)c1ccc(Cl)cc1 (centres unmarked) [BC19332]
> 10000 | > 10 |  |  | O=S(=O)(c1ccc(Cl)cc1)c1nc(-c2cccc(F)c2)sc1[S+]([O-])C1CCCCC1 (centres unmarked) [BC19532]
1000 to 10000 | > 10 |  |  | CN1CCN(C(=O)c2ccc3nc(-c4ccc(Cl)cc4)c(-c4ccc(Cl)cc4)nc3c2)CC1 [BC19450]
 |  | < 100 | > 10 | CC1Oc2c(cc(Cl)cc2S(=O)(=O)Nc2ccccc2)NC1=O (centres unmarked) [BC19291]
1000 to 10000 | 1 to 10 |  |  | COCC[S+]([O-])c1sc(-c2ccc(Cl)cc2)nc1S(=O)(=O)c1ccc(F)cc1 (centres unmarked) [BC19540]
 |  | 100 to 1000 | > 10 | CCC1Oc2cc(S(=O)(=O)Nc3cccc(Cl)c3)c(Cl)cc2NC1=O (centres unmarked) [BC19751]
 |  | < 100 | > 10 | CC(C)c1ccc(NS(=O)(=O)c2cc(S(C)(=O)=O)cc3c2OCC(=O)N3)cc1 [BC19424]
 |  | 100 to 1000 | > 10 | CCC1Oc2cc(S(=O)(=O)Nc3cccc(Cl)c3)c(Br)cc2NC1=O (centres unmarked) [BC19221]
100 to 1000 | > 10 |  |  | COc1cccc(-c2nc(S(=O)(=O)c3ccc(Cl)cc3)c(S(C)(=O)=O)[nH]2)c1 [BC19410]
 |  | > 10000 | > 10 | O=C1COc2cc(S(=O)(=O)NCc3ccc(OC(F)(F)F)cc3)c(Br)cc2N1 [BC19392]
 |  | 1000 to 10000 | > 10 | O=c1c(S(=O)(=O)c2ccc(F)cc2)c[nH]c2ccncc12 [BC19123]
> 10000 | > 10 |  |  | O=S(=O)(c1ccccc1)c1cnn(-c2ccccc2)c1 [BC19204]
 |  | < 100 | > 10 | CCc1ccc(NS(=O)(=O)c2cc(Br)cc3c2OCC(=O)N3)cc1 [BC19179]
> 10000 | > 10 |  |  | COc1cccc(-c2nc(S(=O)(=O)c3ccc(Cl)cc3)c(S(=O)(=O)C(C)C)[nH]2)c1 [BC19336]
> 10000 | > 10 |  |  | COCC[S+]([O-])c1[nH]c(-c2ccccc2)nc1S(=O)(=O)c1ccc(F)cc1 (centres unmarked) [BC19524]
 |  | > 10000 | > 10 | CC(C)CNS(=O)(=O)c1cc(Br)cc2c1OC(C)C(=O)N2 (centres unmarked) [BC19227]
 |  | < 100 | > 10 | CCC1Oc2c(cc(Cl)cc2S(=O)(=O)Nc2ccc(F)cc2Cl)NC1=O (centres unmarked) [BC19756]

IC50 (NF-κB; LPS-stimulated) [nM] | IC50 (TNF release; [1]) [µM] | IC50 (NF-κB; [2]) [nM] | IC50 (TNF release; [3]) [µM] | Compound
 |  | 1000 to 10000 | 1 to 10 | Cc1ccc(NS(=O)(=O)c2cc3c(cc2Br)N(C)C(=O)C(C)O3)cc1Cl (centres unmarked) [BC19797]
< 100 | > 10 |  |  | O=C(NCCN1CCOCC1)c1ccc2nc(-c3ccc(F)cc3)c(-c3ccc(F)cc3)nc2c1 [BC19237]
> 10000 | > 10 |  |  | O=C1CCOc2cc(S(=O)(=O)Nc3cccc(F)c3)c(Br)cc2N1 [BC19654]
1000 to 10000 | > 10 |  |  | OCCn1ncc(-c2ccc3nc(-c4ccc(F)cc4)c(-c4ccc(F)cc4)nc3c2)n1 [BC19404]
 |  | < 100 | > 10 | CCC1Oc2cc(S(=O)(=O)Nc3ccc(OC(F)(F)F)cc3)c(Br)cc2N(C)C1=O (centres unmarked) [BC19922]
> 10000 | > 10 |  |  | CC(C)[S+]([O-])c1sc(C2CCCCC2)nc1S(=O)(=O)c1ccc(Cl)cc1 (centres unmarked) [BC19635]
1000 to 10000 | > 10 |  |  | O=S(=O)(c1ccc(Cl)cc1)c1nc(-c2ccccc2)[nH]c1[S+]([O-])CC1CC1 (centres unmarked) [BC19466]
> 10000 | > 10 |  |  | CN1CCN(C(=O)c2ccc3nc(C(F)(F)F)c(-c4ccccc4)nc3c2)CC1 [BC19104]
 |  | < 100 | > 10 | CCC1Oc2cc(S(=O)(=O)Nc3ccc(OC(F)(F)F)cc3)c(Cl)cc2NC1=O (centres unmarked) [BC19733]
> 10000 | > 10 |  |  | CN1CCN(C(=O)c2ccc3nc(C(F)(F)F)c(-c4ccc(F)cc4F)nc3c2)CC1 [BC19107]
1000 to 10000 | > 10 |  |  | Cc1cnc(-c2ccc3nc(-c4ccc(F)cc4)c(-c4ccc(F)cc4)nc3c2)o1 [BC19140]
 |  | < 100 | > 10 | CCS(=O)(=O)c1cc2c(c(S(=O)(=O)Nc3ccc(OC)cc3)c1)OCC(=O)N2 [BC19438]
 |  | 1000 to 10000 | > 10 | CCC1Oc2cc(S(=O)(=O)Nc3ccc(F)cc3Cl)c(Cl)cc2NC1=O (centres unmarked) [BC19755]
100 to 1000 | > 10 |  |  | O=C(O)c1cnc2nc(-c3ccc(F)cc3)c(-c3ccc(F)cc3)nc2c1 [BC19407]
1000 to 10000 | < 0.1 |  |  | C[S+]([O-])c1sc(-c2ccc3ccccc3c2)nc1S(=O)(=O)c1ccc(Cl)cc1 (centres unmarked) [BC19671]
1000 to 10000 | < 0.1 |  |  | CS(=O)(=O)c1oc(-c2cccc(F)c2)nc1S(=O)(=O)c1ccc(Cl)cc1 [BC19343]
100 to 1000 | < 0.1 |  |  | O=S(=O)(c1ccc(Cl)cc1)c1nc(-c2ccc(Cl)cc2)oc1[S+]([O-])CC1CC1 (centres unmarked) [BC19464]
